Assay results from US8975280B2, “Deoxynojirimycin and D-arabinitol analogs and methods of using” (The Chancellor, Masters and Scholars of The University of …, priority 2006, dated 2015).
Where two headings read alike, the source gives them in different places.

Experiments:
α-glucosidase II = target: T1, α-glucosidase II (Rattus norvegicus, UniProt A0A8I6GFL3); assay: In vitro inhibition of purified α-glucosidase II, (a) and (b) activities, 2-AA-labeled FOS substrates, HPLC; type: biochemical
T1 construct: Purified α-glucosidase I and II were purified from rat liver by known methods; from tissue; host or cells: rat liver
Experimental: (§1) All chromatography was performed at 30° C. The first solvent, solvent A, was acetonitrile and the second solvent, solvent B, was Milli-Q water. […] Samples (<50 μl) were injected in Milli-Q water/acetonitrile (3/7, v/v). All chromatography was controlled, including data collection and processing, using Waters Empower software. Glucose units were determined, following comparison with a 2-AA-labeled glucose oligomer ladder (derived from a partial hydrolysate of dextran) external standard using Peak Time software (developed in-house).
Purified α-glucosidase I and II were purified from rat liver by known methods. […] 2-AA-labeled FOS were isolated and purified as substrates for either α-glucosidase I or II. […] […] […] […] The reactions were stopped by the addition of 30 μl acetonitrile.

α-glucosidase I = target: T2, α-glucosidase I (Rattus norvegicus, UniProt O88941); assay: In vitro inhibition of purified α-glucosidase I, 2-AA-labeled FOS substrates, HPLC; type: biochemical
T2 construct: Purified α-glucosidase I and II were purified from rat liver by known methods; from tissue; host or cells: rat liver
T2 sequence (O88941 1-834): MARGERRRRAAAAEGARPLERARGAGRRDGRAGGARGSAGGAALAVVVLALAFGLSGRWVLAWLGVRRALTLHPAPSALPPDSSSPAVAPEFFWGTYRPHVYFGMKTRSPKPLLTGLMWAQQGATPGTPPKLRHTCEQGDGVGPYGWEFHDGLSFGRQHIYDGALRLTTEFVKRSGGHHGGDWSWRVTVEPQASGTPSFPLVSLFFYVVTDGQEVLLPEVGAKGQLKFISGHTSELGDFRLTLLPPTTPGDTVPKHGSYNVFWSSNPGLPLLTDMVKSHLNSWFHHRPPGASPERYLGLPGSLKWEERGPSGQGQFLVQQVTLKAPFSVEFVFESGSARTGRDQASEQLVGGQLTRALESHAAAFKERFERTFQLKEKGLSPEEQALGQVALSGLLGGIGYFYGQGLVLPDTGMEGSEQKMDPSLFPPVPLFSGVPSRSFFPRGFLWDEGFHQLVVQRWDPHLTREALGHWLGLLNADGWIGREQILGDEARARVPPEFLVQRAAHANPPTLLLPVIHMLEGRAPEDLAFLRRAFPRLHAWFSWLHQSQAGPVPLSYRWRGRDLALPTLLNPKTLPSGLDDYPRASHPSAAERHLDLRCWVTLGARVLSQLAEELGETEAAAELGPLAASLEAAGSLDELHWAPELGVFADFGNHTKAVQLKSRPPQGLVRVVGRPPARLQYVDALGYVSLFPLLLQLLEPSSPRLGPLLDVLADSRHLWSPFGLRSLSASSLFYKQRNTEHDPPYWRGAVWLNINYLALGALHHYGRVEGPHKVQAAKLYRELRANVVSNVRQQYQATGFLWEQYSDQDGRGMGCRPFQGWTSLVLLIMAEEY
Experimental: as §1
Purified α-glucosidase I and II were purified from rat liver by known methods. […] 2-AA-labeled FOS were isolated and purified as substrates for either α-glucosidase I or II. Fluorescently-labeled substrates Glc1Man5GlcNAc1 (G1M5N), Glc2Man5GlcNAc1 (G2M5N), Glc3Man5GlcNAc1 (G3M5N) and Glc3Man9GlcNAc, (G3M9N2) were added to separate 1.5 ml centrifuge tubes with varying concentrations of imino sugar and dried under vacuum. […] Similarly, α-glucosidase II was incubated for 2 hours with G2M5N and 20 minutes with G1M5N. […] The reactions were stopped by the addition of 30 μl acetonitrile.

[1] = pentamannose substrate Glc1Man5GlcNAc1, read-out: α-Glucosidase II (b) Glc1Man5GlcNAc1 IC50
[2] = pentamannose substrate Glc2Man5GlcNAc1, read-out: α-Glucosidase II (a) Glc2Man5GlcNAc1 IC50
[3] = nonamannose substrate Glc3Man9GlcNAc1, read-out: α-Glucosidase I Glc3Man9GlcNAc1 IC50
[4] = pentamannose substrate Glc3Man5GlcNAc1, read-out: α-Glucosidase I Glc3Man5GlcNAc1 IC50

T1 sequence (A0A8I6ADW9 1-525 partner): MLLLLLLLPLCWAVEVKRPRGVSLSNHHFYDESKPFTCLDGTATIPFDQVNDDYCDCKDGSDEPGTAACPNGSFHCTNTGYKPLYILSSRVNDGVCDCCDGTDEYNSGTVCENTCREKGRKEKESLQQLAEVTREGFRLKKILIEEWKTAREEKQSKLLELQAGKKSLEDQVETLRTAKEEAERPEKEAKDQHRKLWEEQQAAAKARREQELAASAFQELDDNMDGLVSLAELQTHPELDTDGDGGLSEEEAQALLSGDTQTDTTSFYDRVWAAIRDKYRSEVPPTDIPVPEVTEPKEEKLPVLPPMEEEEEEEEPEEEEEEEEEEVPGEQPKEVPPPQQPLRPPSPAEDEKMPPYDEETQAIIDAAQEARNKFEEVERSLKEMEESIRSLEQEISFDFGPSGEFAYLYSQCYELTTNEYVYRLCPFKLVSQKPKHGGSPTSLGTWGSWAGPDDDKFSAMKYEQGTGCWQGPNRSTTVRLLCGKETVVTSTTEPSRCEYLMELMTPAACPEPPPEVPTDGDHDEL

| IC50 (α-glucosidase II; heptamannose substrate Glc1Man7GlcNAc1, read-out: α-Glucosidase II (b) Glc1Man7GlcNAc1 IC50) | IC50 (α-glucosidase II; heptamannose substrate Glc2Man7GlcNAc1, read-out: α-Glucosidase II (a) Glc2Man7GlcNAc1 IC50) | IC50 (α-glucosidase I; heptamannose substrate Glc3Man7GlcNAc1, read-out: α-Glucosidase I Glc3Man7GlcNAc1 IC50) | SMILES | IC50 (α-glucosidase II; [1]) | IC50 (α-glucosidase II; [2]) | IC50 (α-glucosidase I; [3]) | IC50 (α-glucosidase I; [4]) |
| --- | --- | --- | --- | --- | --- | --- | --- |
| – | – | – | CCCCN1C[C@H](O)[C@@H](O)[C@H](O)[C@H]1CO [NB-DNJ, N-butyl-DNJ, reference compound] | 53 ± 16.6 µM | 10.8 ± 1.1 µM | 590 ± 80 nM | 680 ± 150 nM |
| 10.2 ± 0.02 µM | 18.1 ± 1.6 µM | 45 ± 3 nM | O=[N+]([O-])c1ccc(NCCCCCCN2C[C@H](O)[C@@H](O)[C@H](O)[C@H]2CO)c([N+](=O)[O-])c1 [NDP-DNJ, N—(N′-{2,4-dinitrophenyl)-6-aminohexyl)-deoxynojirimycin] | 1.9 ± 0.4 µM | 6.9 ± 3.4 µM | 54 ± 20 nM | 108 ± 20 nM |
